# According to US20230365592A1 (Agios Pharmaceuticals, Inc., priority 2022, published 2023):
# Molecular target: T1, human PAH with the R408W mutation (Homo sapiens, UniProt P00439, R408W)
# T1 construct: expressed in transfected cells
# T1 sequence (P00439 1-452 R408W): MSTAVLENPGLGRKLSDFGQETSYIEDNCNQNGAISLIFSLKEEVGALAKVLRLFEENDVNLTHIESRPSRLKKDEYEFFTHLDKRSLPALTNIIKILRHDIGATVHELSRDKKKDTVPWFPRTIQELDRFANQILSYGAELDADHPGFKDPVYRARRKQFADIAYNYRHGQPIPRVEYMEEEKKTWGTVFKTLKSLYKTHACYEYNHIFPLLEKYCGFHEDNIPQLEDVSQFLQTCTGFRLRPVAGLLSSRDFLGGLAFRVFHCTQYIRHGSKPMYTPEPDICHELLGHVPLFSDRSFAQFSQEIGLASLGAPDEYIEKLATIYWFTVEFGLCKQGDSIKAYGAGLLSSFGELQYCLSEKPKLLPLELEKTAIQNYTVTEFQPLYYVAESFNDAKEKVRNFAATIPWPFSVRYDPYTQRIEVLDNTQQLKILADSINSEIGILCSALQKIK
# Assay: Cell Based Phenylalanine Flux Assay;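 further: after compound treatment, cells received sepiapterin plus isotope-labelled Phenylalanine for 4 hours, then labelled Tyrosine in the medium was quantified, 10-point 2-fold dilution series run in duplicate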
# Settings: A375 cells expressing R408W PAH; 24 hrs with compound, then 20 µM sepiapterin and 800 µM 13C9,15N-Phenylalanine for 4 hours; 13C-Tyrosine by LC-MS; average where tested multiple times; read-out: AC50
row,AC50 [nM],SMILES
1,> 5000,COCCNc1nnc(C(=O)N2CCc3[nH]cnc3C2c2cc3ccccn3n2)o1 (stereo not shown)
2,1000 to 5000,Cc1ccn2nc(C3c4nc[nH]c4CCN3C(=O)c3nnc(C4CC4)o3)cc2c1 (stereo not shown)
3,> 5000,COc1ccc2c(C(=O)N3CCc4[nH]cnc4C3c3cc4c(OC)cccn4n3)cnn2c1 (stereo not shown)
4,> 5000,Cc1nnc(C(=O)N2CCc3[nH]cnc3C2c2cc3c(F)cccn3n2)o1 (stereo not shown)
5,1000 to 5000,FC(F)c1nnc(N2CCc3[nH]cnc3C2c2cc3cccc(Cl)n3n2)o1 (stereo not shown)
6,1000 to 5000,Cc1nnc(C(=O)N2CCc3[nH]cnc3C2c2cc3cccc(Cl)n3n2)o1 (stereo not shown)
7,1000 to 5000,COc1cccn2nc(C3c4nc[nH]c4CCN3C(=O)c3nnc(-c4cnn(C)c4)o3)cc12 (stereo not shown)
8,1000 to 5000,Cn1cncc1-c1nnc(C(=O)N2CCc3[nH]cnc3C2c2cc3c(C(F)F)cccn3n2)o1 (stereo not shown)

# Same assay, conditions: A375 cells expressing human PAH R408W; 24 hrs compound incubation; 13C-Tyrosine by LC-MS; average where tested multiple times; read-out: AC50
row,AC50 [nM],SMILES
1,< 500,"FC(F)Oc1cccn2nc([C@@H]3c4nc[nH]c4CCN3c3ncc(C(F)(F)F)cn3)cc12 [Example 2256, (S)-4-(4-(difluoromethoxy)pyrazolo[1,5-a]pyridin-2-yl)-5-(5-(trifluoromethyl)pyrimidin-2-yl)-4,5,6,7-tetrahydro-1H-imidazo[4,5-c]pyridine]"
2,< 500,"Fc1ccc(-c2nnc(N3CCc4[nH]cnc4[C@H]3c3cc4cccc(Cl)n4n3)o2)cc1 [Example 2086, (S)-2-(4-(7-chloropyrazolo[1,5-a]pyridin-2-yl)-1,4,6,7-tetrahydro-5H-imidazo[4,5-c]pyridin-5-yl)-5-(4-fluorophenyl)-1,3,4-oxadiazole]"
3,500 to 1000,"O=C(c1nc2ccccc2o1)N1CCc2[nH]cnc2[C@H]1c1cc2c(C(F)F)cccn2n1 [Example 2052, (S)-benzo[d]oxazol-2-yl(4-(4-(difluoromethyl)pyrazolo[1,5-a]pyridin-2-yl)-1,4,6,7-tetrahydro-5H-imidazo[4,5-c]pyridin-5-yl)methanone]"
4,< 500,"O=C(c1cnc(C2CC2)o1)N1CCc2[nH]cnc2[C@H]1c1cc2c(C(F)(F)F)cccn2n1 [Example 2140, (S)-(2-cyclopropyloxazol-5-yl)(4-(4-(trifluoromethyl)pyrazolo[1,5-a]pyridin-2-yl)-1,4,6,7-tetrahydro-5H-imidazo[4,5-c]pyridin-5-yl)methanone]"
5,< 500,"CC(C)(O)c1nc(C(F)F)c(C(=O)N2CCc3[nH]cnc3[C@H]2c2cc3cc(C(F)(F)F)ccn3n2)o1 [Example 2406, (S)-(4-(difluoromethyl)-2-(2-hydroxypropan-2-yl)oxazol-5-yl)(4-(5-(trifluoromethyl)pyrazolo[1,5-a]pyridin-2-yl)-6,7-dihydro-1H-imidazo[4,5-c]pyridin-5(4H)-yl)methanone]"
6,< 500,"c1ccc(N2CCc3[nH]cnc3[C@H]2c2cc3ccccn3n2)cc1 [Example 2239, (S)-5-phenyl-4-(pyrazolo[1,5-a]pyridin-2-yl)-4,5,6,7-tetrahydro-1H-imidazo[4,5-c]pyridine]"
7,> 5000,"O=C(c1nnc(C2CC2)o1)N1CCc2[nH]cnc2[C@@H]1c1cc2c(C3CC3)cccn2n1 [Example 1839, (R)-(5-cyclopropyl-1,3,4-oxadiazol-2-yl)(4-(4-cyclopropylpyrazolo[1,5-a]pyridin-2-yl)-1,4,6,7-tetrahydro-5H-imidazo[4,5-c]pyridin-5-yl)methanone]"
8,< 500,"FC(F)(F)c1ccc(N2CCc3[nH]cnc3[C@H]2c2cc3c(Cl)cccn3n2)nc1 [Example 2095, (S)-4-(4-chloropyrazolo[1,5-a]pyridin-2-yl)-5-(5-(trifluoromethyl)pyridin-2-yl)-4,5,6,7-tetrahydro-1H-imidazo[4,5-c]pyridine]"
9,< 500,"O=C(c1oc(-c2ccccn2)nc1C1CC1)N1CCc2[nH]cnc2[C@H]1c1cc2c(F)cccn2n1 [Example 2118, (S)-(4-cyclopropyl-2-(pyridin-2-yl)oxazol-5-yl)(4-(4-fluoropyrazolo[1,5-a]pyridin-2-yl)-1,4,6,7-tetrahydro-5H-imidazo(4,5-c]pyridin-5-yl)methanone]"
10,< 500,"Cc1cccnc1-c1nnc(N2CCc3[nH]cnc3[C@H]2c2cc3c(C(C)C)cccn3n2)o1 [Example 2285, (S)-2-(4-(4-isopropylpyrazolo[1,5-a]pyridin-2-yl)-1,4,6,7-tetrahydro-5H-imidazo[4,5-c]pyridin-5-yl)-5-(3-methylpyridin-2-yl)-1,3,4-oxadiazole]"
11,< 500,"CC(F)(F)c1nnc(N2CCc3[nH]cnc3[C@H]2c2cc3c(C(F)(F)F)cccn3n2)o1 [Example 2195, (S)-2-(1,1-difluoroethyl)-5-(4-(4-(trifluoromethyl)pyrazolo[1,5-a]pyridin-2-yl)-1,4,6,7-tetrahydro-5H-imidazo[4,5-c]pyridin-5-yl)-1,3,4-oxadiazole]"

# Same assay, conditions: A375 cells expressing human R408W PAH; 24 hrs compound incubation; 13C-Tyrosine by LC-MS; average where tested multiple times; read-out: AC50
row,SMILES,AC50 [nM]
1,"CC(C)(F)c1nnc(C(=O)N2CCc3[nH]cnc3[C@H]2c2cc3c(F)cccn3n2)o1 [Example 1024, (S)-(5-(2-fluoropropan-2-yl)-1,3,4-oxadiazol-2-yl)(4-(4-fluoropyrazolo[1,5-a]pyridin-2-yl)-6,7-dihydro-1H-imidazo[4,5-c]pyridin-5(4H)-yl)methanone]",< 500
2,"Cc1nnc(C(=O)N2CCc3[nH]cnc3[C@@H]2c2cc3c(Cl)cccn3n2)o1 [Example 1107, (R)-(4-(4-chloropyrazolo[1,5-a]pyridin-2-yl)-6,7-dihydro-1H-imidazo[4,5-c]pyridin-5(4H)-yl)(5-methyl-1,3,4-oxadiazol-2-yl)methanone]",1000 to 5000
3,"Cc1cccn2nc([C@H]3c4nc[nH]c4CCN3C(=O)c3nnc(-c4cn(C)cn4)o3)cc12 [Example 807, (R)-(5-(1-methyl-1H-imidazol-4-yl)-1,3,4-oxadiazol-2-yl)(4-(4-methylpyrazolo[1,5-a]pyridin-2-yl)-6,7-dihydro-1H-imidazo[4,5-c]pyridin-5(4H)-yl)methanone]",> 5000
4,"Cc1cccn2nc([C@@H]3c4nc[nH]c4CCN3C(=O)c3nc(Cl)nn3C)cc12 [Example 1076, (S)-(3-chloro-1-methyl-1H-1,2,4-triazol-5-yl)(4-(4-methylpyrazolo[1,5-a]pyridin-2-yl)-6,7-dihydro-1H-imidazo[4,5-c]pyridin-5(4H)-yl)methanone]",< 500
5,"O=C(c1oc(-c2ccccn2)nc1C(F)F)N1CCc2[nH]cnc2[C@@H]1c1cc2c(F)cccn2n1 [Example 1007, (R)-(4-(difluoromethyl)-2-(pyridin-2-yl)oxazol-5-yl)(4-(4-fluoropyrazolo[1,5-a]pyridin-2-yl)-6,7-dihydro-1H-imidazo[4,5-c]pyridin-5(4H)-yl)methanone]",500 to 1000
6,"O=C(c1nnc(C2CC2)o1)N1CCc2[nH]cnc2[C@@H]1c1cc2c(F)cccn2n1 [Example 947, (R)-(5-cyclopropyl-1,3,4-oxadiazol-2-yl)(4-(4-fluoropyrazolo[1,5-a]pyridin-2-yl)-6,7-dihydro-1H-imidazo[4,5-c]pyridin-5(4H)-yl)methanone]",> 5000
7,"Cc1ccc2cc([C@H]3c4nc[nH]c4CCN3C(=O)c3nnc(C4CC4)o3)nn2c1 [Example 967, (R)-(5-cyclopropyl-1,3,4-oxadiazol-2-yl)(4-(6-methylpyrazolo[1,5-a]pyridin-2-yl)-6,7-dihydro-1H-imidazo[4,5-c]pyridin-5(4H)-yl)methanone]",> 5000
8,"O=C(c1nnc(-c2cnn(C(F)F)c2)o1)N1CCc2[nH]cnc2[C@@H]1c1cc2ccccn2n1 [Example 651, (R)-(5-(1-(difluoromethyl)-1H-pyrazol-4-yl)-1,3,4-oxadiazol-2-yl)(4-(pyrazolo[1,5-a]pyridin-2-yl)-6,7-dihydro-1H-imidazo[4,5-c]pyridin-5(4H)-yl)methanone]",1000 to 5000
9,"Cc1cccn2nc([C@@H]3c4nc[nH]c4CCN3C(=O)c3nnc(-c4cnn(C(F)F)c4)o3)cc12 [Example 820, (S)-(5-(1-(difluoromethyl)-1H-pyrazol-4-yl)-1,3,4-oxadiazol-2-yl)(4-(4-methylpyrazolo[1,5-a]pyridin-2-yl)-6,7-dihydro-1H-imidazo[4,5-c]pyridin-5(4H)-yl)methanone]",< 500
10,"O=C(c1ocnc1C(F)F)N1CCc2[nH]cnc2[C@@H]1c1cc2ccc(F)cn2n1 [Example 1069, (R)-(4-(difluoromethyl)oxazol-5-yl)(4-(6-fluoropyrazolo[1,5-a]pyridin-2-yl)-6,7-dihydro-1H-imidazo[4,5-c]pyridin-5(4H)-yl)methanone]",1000 to 5000

# The next lines start with the values.
row,AC50 [nM],SMILES
1,500 to 1000,"CC(C)(F)c1nnc(C(=O)N2CCc3[nH]cnc3[C@H]2c2cc3c(OC(F)(F)F)cccn3n2)o1 [Example 1726, (S)-(5-(2-fluoropropan-2-yl)-1,3,4-oxadiazol-2-yl)(4-(4-(trifluoromethoxy)pyrazolo[1,5-a]pyridin-2-yl)-6,7-dihydro-1H-imidazo[4,5-c]pyridin-5(4H)-yl)methanone]"
2,< 500,"O=C(c1nnc(-c2cnn(C(F)F)c2)o1)N1CCc2[nH]cnc2[C@H]1c1cc2cccc(Cl)n2n1 [Example 1120, (S)-(4-(7-chloropyrazolo[1,5-a]pyridin-2-yl)-6,7-dihydro-1H-imidazo[4,5-c]pyridin-5(4H)-yl)(5-(1-(difluoromethyl)-1H-pyrazol-4-yl)-1,3,4-oxadiazol-2-yl)methanone]"
